Measurements as given in US20150316568A1, “Method for Screening Lyophilized Parenteral Formulations” (Cubist Pharmaceuticals, Inc., priority 2014, published 2015).

Tests used:
[1] = X-Ray Powder Diffraction (XRPD) of solid form pre/post lyophilization; format: physicochemical; conditions: crystalline powder before lyophilization
[2] = Excerpt: 1. […] 2. […] 3. […] 4. […] 5. […] 6. […] 7. […] 8. […] 9. […] 10.

solid form after the lyophilization process (XRPD) [1]	solubility improvement [2]	Compound
amorphous form	3-4 ×	Fc1ccc([C@@H]2CCNC[C@H]2COc2ccc3c(c2)OCO3)cc1 [Paroxetine]
amorphous form	3-4 ×	CN1CCN(c2cc3c(cc2F)c(=O)c(C(=O)O)cn3-c2ccc(F)cc2)CC1 [Difloxacin]
semi-crystalline forms	–	O=C(O)c1cn(C2CC2)c2cc(N3CCNCC3)c(F)cc2c1=O [Ciprofloxacin]
